Reference: ChEMBL document CHEMBL3600282, “Four new ginsenosides from red ginseng with inhibitory activity on melanogenesis in melanoma cells” (Bioorg Med Chem Lett, 2015)
Active and inactive are the calls of the source. No cut-off for these calls is given here.

What was measured:
[1] = molecular target: T1, Tyrosinase (Mus musculus) (UniProt P11344); experiment: Inhibition of alpha-MSH-induced tyrosinase activity in mouse B16 cells assessed as reduction of melanin content using L-DOPA as substrate after 2 hrs; format: cell-based
T1 sequence (whole entry): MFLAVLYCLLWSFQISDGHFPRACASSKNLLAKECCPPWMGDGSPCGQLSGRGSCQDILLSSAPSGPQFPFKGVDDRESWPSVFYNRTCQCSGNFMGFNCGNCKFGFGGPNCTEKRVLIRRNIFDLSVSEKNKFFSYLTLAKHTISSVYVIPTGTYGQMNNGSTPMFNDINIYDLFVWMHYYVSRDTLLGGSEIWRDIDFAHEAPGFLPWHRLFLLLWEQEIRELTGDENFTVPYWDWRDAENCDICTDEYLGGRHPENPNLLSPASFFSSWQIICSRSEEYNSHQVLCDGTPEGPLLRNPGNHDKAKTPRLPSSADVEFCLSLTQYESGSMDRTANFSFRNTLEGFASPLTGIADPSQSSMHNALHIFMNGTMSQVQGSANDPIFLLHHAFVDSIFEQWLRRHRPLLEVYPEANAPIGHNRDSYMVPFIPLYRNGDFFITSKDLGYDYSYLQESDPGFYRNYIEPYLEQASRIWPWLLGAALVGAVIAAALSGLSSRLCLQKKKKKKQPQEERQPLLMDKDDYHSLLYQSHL

B16 [2] = experiment: Inhibition of alpha-MSH-induced melanogenesis in mouse B16 cells assessed as reduction of melanin content after 48 hrs; format: functional, cell-based
[3] = Cytotoxicity against mouse B16 cells assessed as cell viability up to 100 uM after 48 hrs by MTT assay; format: cell-based; details: read-out: Activity
B16 [4] = experiment: Inhibition of alpha-MSH-induced melanogenesis in mouse B16 cells assessed as reduction of melanin content at 100 uM after 48 hrs; format: functional, cell-based
B16 [5] = experiment: Inhibition of alpha-MSH-induced melanogenesis in mouse B16 cells assessed as reduction of melanin content at 25 to 100 uM after 48 hrs; format: functional, cell-based
B16 [6] = experiment: Inhibition of alpha-MSH-induced melanogenesis in mouse B16 cells assessed as reduction of melanin content at 200 uM after 48 hrs; format: functional, cell-based

**Q.** Which results are given for `CC(=O)OC[C@H]1O[C@@H](O[C@H]2[C@H](O[C@H]3CC[C@]4(C)[C@H]5C[C@@H](O)[C@@H]6[C@@H](/C(C)=C\CC=C(C)C)CC[C@@]6(C)[C@]5(C)CC[C@H]4C3(C)C)O[C@H](CO)[C@@H](O)[C@@H]2O)[C@H](O)[C@@H](O)[C@@H]1O`?
**A.** inhibition [1]: Dose-dependent effect; inhibition (B16 [2]): Dose-dependent effect; viability at 48 h [3]: 95%; inhibition (B16 [4]): Active

**Q.** What does the source list for `CC(C)=CCC[C@](C)(O)[C@H]1CC[C@]2(C)[C@@H]1[C@H](O)C[C@@H]1[C@@]3(C)CC[C@H](O)C(C)(C)[C@@H]3[C@@H](O[C@@H]3O[C@H](CO)[C@@H](O[C@H]4O[C@H](CO)[C@@H](O)[C@H](O)[C@H]4O)[C@H](O)[C@H]3O)C[C@]12C`?
**A.** inhibition (B16 [5]): inactive; viability at 48 h [3]: 95%

**Q.** For `OC[C@H]1O[C@@H](Oc2ccc(O)cc2)[C@H](O)[C@@H](O)[C@@H]1O`, which inhibition (B16 [6]) is on record?
**A.** The inhibition was “Active”.

**Q.** For `CCCCOC(=O)[C@H]1O[C@@H](O[C@H]2CC[C@]3(C)[C@H]4CC=C5[C@@H]6CC(C)(C)CC[C@]6(C(=O)O[C@@H]6O[C@H](CO)[C@@H](O)[C@H](O)[C@H]6O)CC[C@@]5(C)[C@]4(C)CC[C@H]3C2(C)C)[C@H](O[C@@H]2O[C@H](CO)[C@@H](O)[C@H](O)[C@H]2O)[C@@H](O)[C@@H]1O`, which inhibition (B16 [5]) is on record?
**A.** Its inhibition is “inactive”.

**Q.** What about the viability at 48 h [3] of the same molecule?
**A.** Its viability at 48 h is 95%.

**Q.** What does the source list for `COC(/C=C(\C)[C@H]1CC[C@]2(C)[C@@H]1[C@H](O)C[C@@H]1[C@@]3(C)CC[C@H](O[C@@H]4O[C@H](CO)[C@@H](O)[C@H](O)[C@H]4O[C@@H]4O[C@H](CO)[C@@H](O)[C@H](O)[C@H]4O)C(C)(C)[C@@H]3CC[C@]12C)C1OC1(C)C` (stereo partly drawn)?
**A.** inhibition [1]: Dose-dependent effect; inhibition (B16 [2]): Dose-dependent effect; viability at 48 h [3]: 95%; inhibition (B16 [4]): Active
